# Measured values published in patent publication US20260092083A1, “VANCOMYCIN DERIVATIVES WITH SIDEROPHORE MODIFICATION AS NOVEL REPURPOSED ANTIBIOTICS TO COMBAT GRAM-NEGATIVE BACTERIAL INFECTION” (priority 2023, published 2026).
# Experiments:
# Type in all cases: cell-based
# [1] = system: P. aeruginosa (multi-pump-gene mutant) PAM1626; experiment: Broth microdilution MIC, P. aeruginosa efflux-deficient; details: Pseudomonas aeruginosa, read-out: MIC (μg/mL) Gram-negative PSA Efflux
# Method: (§1) The test compounds including vancomycin hydrochloride were supplied as a 6.4 mg/mL solution in 100% dimethyl sulfoxide (DMSO) aliquoted into individual wells of a 96-well plate (50 μL per well). […] Standardized inocula were added to the MIC test plates, which were incubated for the prescribed times at 35° C. The N. gonorrhoeae strain was incubated in an atmosphere containing 5% CO2.
# (§2) The final optical density of each well at 600 nm was measured using a Tecan Spark plate reader. The compound concentration versus OD600 data were then curve fit using custom software. An MIC value was defined as the lowest compound concentration that led to an OD600 value≤0.15 for the E. coli, K. pneumoniae, P. aeruginosa, A. baumannii, or S. aureus strains. For the N. gonorrhoeae strain, an OD600 value≤0.19 was used as a cutoff to define an MIC value; this higher cut-off value was required because the N. gonorrhoeae MIC plates were covered with plastic seals that increased the background OD600 value.
# (§3) JMI Laboratories followed current CLSI quality assurance practices when performing the susceptibility tests. MIC values were validated by concurrently testing the CLSI-recommended ATCC QC reference strains S. aureus ATCC 29213 and K. pneumoniae ATCC 700603. The inoculum density during susceptibility testing was monitored by bacterial colony counts. Where applicable, QC ranges for tested reference strains were those ranges approved or published by CLSI for testing in CAMHB. […] Importantly, the CLSI reference method for testing N. gonorrhoeae is the agar dilution MIC method, which was not used here. Thus, CLSI MIC QC ranges for N. gonorrhoeae could not be applied to the antimicrobials studied here.
# (§4) Abbreviations: EC, E. coli (wild-type) BW25113; EC efflux^−, E. coli (tolC) JW5503-1; KPN, K. pneumoniae ATCC 700603; PSA, P. aeruginosa PAO1; PSA efflux^−, P. aeruginosa (multi-pump-gene mutant) PAM1626; ACB, A. baumannii JMI #1186154; GC, N. gonorrhoeae WHO-Z; SA, S. aureus ATCC 29213. Broth microdilution MIC values were measured in iron-depleted CAMHB for all strains except for GC, which was tested in fastidious broth.
# [2] = system: E. coli (tolC) JW5503-1; experiment: Broth microdilution MIC, E. coli efflux-deficient (tolC); details: Escherichia coli, read-out: MIC (μg/mL) Gram-negative EC Efflux
# Method: as §1, §2, §3, §4
# [3] = system: K. pneumoniae ATCC 700603; experiment: Broth microdilution MIC, K. pneumoniae; details: Klebsiella pneumoniae, ATCC700603, read-out: MIC (μg/mL) Gram-negative KPN
# Method: as §1, §2, §3, §4
# [4] = system: S. aureus ATCC 29213; experiment: Broth microdilution MIC, S. aureus; details: Staphylococcus aureus, ATCC29213, iron-depleted CAMHB, OD600 ≤0.15, read-out: MIC (μg/mL) Gram positive SA
# Method: as §1, §2, §3, §4
# [5] = system: E. coli (wild-type) BW25113; experiment: Broth microdilution MIC, E. coli wild-type; details: Escherichia coli, iron-depleted CAMHB, OD600 ≤0.15, read-out: MIC (μg/mL) Gram-negative EC
# Method: as §1, §2, §3, §4
# [6] = system: N. gonorrhoeae WHO-Z; experiment: Broth microdilution MIC, N. gonorrhoeae; details: Neisseria gonorrhoeae, read-out: MIC (μg/mL) Gram-negative GC
# Method: as §1, §2, §3, §4
# [7] = system: P. aeruginosa PAO1; experiment: Broth microdilution MIC, P. aeruginosa; details: Pseudomonas aeruginosa, iron-depleted CAMHB, OD600 ≤0.15, read-out: MIC (μg/mL) Gram-negative PSA
# Method: as §1, §2, §3, §4
# [8] = system: A. baumannii JMI #1186154; experiment: Broth microdilution MIC, A. baumannii; details: Acinetobacter baumannii, iron-depleted CAMHB, OD600 ≤0.15, read-out: MIC (μg/mL) Gram-negative ACB
# Method: as §1, §2, §3, §4
SMILES,MIC [1] [µg/mL],MIC [2] [µg/mL],MIC [3] [µg/mL],MIC [4] [µg/mL],MIC [5] [µg/mL],MIC [6] [µg/mL],MIC [7] [µg/mL],MIC [8] [µg/mL]
CN[C@H](CC(C)C)C(=O)N[C@H]1C(=O)N[C@@H](CC(N)=O)C(=O)N[C@H]2C(=O)N[C@H]3C(=O)N[C@H](C(=O)N[C@H](C(=O)NCCOCCOCCNS(=O)(=O)c4ccc(O)c(O)c4)c4cc(O)cc(O)c4-c4cc3ccc4O)[C@H](O)c3ccc(c(Cl)c3)Oc3cc2cc(c3O[C@@H]2O[C@H](CO)C(O)C(O)[C@H]2O[C@H]2CC(C)(N)[C@H](O)[C@H](C)O2)Oc2ccc(cc2Cl)[C@H]1O (stereo in doubt) [Compound 18],> 64,> 64,> 64,4,64,> 64,> 64,1
CNC(CC(C)C)C(=O)NC1C(=O)NC(CC(N)=O)C(=O)NC2C(=O)NC3C(=O)NC(C(=O)N[C@H](C(=O)O)c4cc(O)cc(O)c4-c4cc3ccc4O)C(O)c3ccc(c(Cl)c3)Oc3cc2cc(c3OC2OC(CO)C(O)C(O)C2OC2CC(C)(NCCNC(=O)c3ccc(O)c(O)c3Cl)C(O)C(C)O2)Oc2ccc(cc2Cl)C1O (stereo partly drawn) [Compound 28],> 64,> 64,> 64,4,> 64,> 64,> 64,32
CN[C@H](CC(C)C)C(=O)N[C@H]1C(=O)N[C@@H](CC(N)=O)C(=O)N[C@H]2C(=O)N[C@H]3C(=O)N[C@H](C(=O)N[C@H](C(=O)NCCCCCCCCNC(=O)c4ccc(O)c(O)c4Cl)c4cc(O)cc(O)c4-c4cc3ccc4O)[C@H](O)c3ccc(c(Cl)c3)Oc3cc2cc(c3O[C@@H]2O[C@H](CO)C(O)C(O)[C@H]2O[C@H]2CC(C)(N)[C@H](O)[C@H](C)O2)Oc2ccc(cc2Cl)[C@H]1O (stereo partly drawn) [Compound 9],> 64,64,> 64,4,64,> 64,> 64,8
CNC(CC(C)C)C(=O)NC1C(=O)NC(CC(N)=O)C(=O)NC2C(=O)NC3C(=O)NC(C(=O)N[C@H](C(=O)O)c4cc(O)c(CNCc5cn(CCCNC(=O)c6ccc(O)c(O)c6Cl)nn5)c(O)c4-c4cc3ccc4O)C(O)c3ccc(c(Cl)c3)Oc3cc2cc(c3OC2OC(CO)C(O)C(O)C2OC2CC(C)(N)C(O)C(C)O2)Oc2ccc(cc2Cl)C1O (stereo partly drawn) [Compound 27],> 64,64,> 64,8,16,> 64,> 64,16
CN[C@H](CC(C)C)C(=O)N[C@H]1C(=O)N[C@@H](CC(N)=O)C(=O)N[C@H]2C(=O)N[C@H]3C(=O)N[C@H](C(=O)N[C@H](C(=O)NCCCCNS(=O)(=O)c4ccc(O)c(O)c4)c4cc(O)cc(O)c4-c4cc3ccc4O)[C@H](O)c3ccc(c(Cl)c3)Oc3cc2cc(c3O[C@@H]2O[C@H](CO)C(O)C(O)[C@H]2O[C@H]2CC(C)(N)[C@H](O)[C@H](C)O2)Oc2ccc(cc2Cl)[C@H]1O (stereo partly drawn) [Compound 17],> 64,64,> 64,2,32,> 64,> 64,2
CN[C@H](CC(C)C)C(=O)N[C@H]1C(=O)N[C@@H](CC(N)=O)C(=O)N[C@H]2C(=O)N[C@H]3C(=O)N[C@H](C(=O)N[C@H](C(=O)NCCCCCCNC(=O)c4ccc(O)c(O)c4Cl)c4cc(O)cc(O)c4-c4cc3ccc4O)[C@H](O)c3ccc(c(Cl)c3)Oc3cc2cc(c3O[C@@H]2O[C@H](CO)C(O)C(O)[C@H]2O[C@H]2CC(C)(N)[C@H](O)[C@H](C)O2)Oc2ccc(cc2Cl)[C@H]1O (stereo partly drawn) [Compound 7],> 64,64,> 64,4,64,> 64,> 64,1
CNC(CC(C)C)C(=O)NC1C(=O)NC(CC(N)=O)C(=O)NC2C(=O)NC3C(=O)NC(C(=O)N[C@H](C(=O)O)c4cc(O)c(CNCCN[S@SP3](=O)(=O)c5ccc(O)c(O)c5)c(O)c4-c4cc3ccc4O)C(O)c3ccc(c(Cl)c3)Oc3cc2cc(c3OC2OC(CO)C(O)C(O)C2OC2CC(C)(N)C(O)C(C)O2)Oc2ccc(cc2Cl)C1O (stereo partly drawn) [Compound 25],> 64,64,> 64,4,16,> 64,> 64,32
CN[C@H](CC(C)C)C(=O)N[C@H]1C(=O)N[C@@H](CC(N)=O)C(=O)N[C@H]2C(=O)N[C@H]3C(=O)N[C@H](C(=O)N[C@H](C(=O)NCCCCN4C(=O)c5cc(O)c(O)cc5C4=O)c4cc(O)cc(O)c4-c4cc3ccc4O)[C@H](O)c3ccc(c(Cl)c3)Oc3cc2cc(c3O[C@@H]2O[C@H](CO)C(O)C(O)[C@H]2O[C@H]2CC(C)(N)[C@H](O)[C@H](C)O2)Oc2ccc(cc2Cl)[C@H]1O (stereo partly drawn) [Compound 2],> 64,32,> 64,8,32,> 64,> 64,32
CN[C@H](CC(C)C)C(=O)N[C@H]1C(=O)N[C@@H](CC(N)=O)C(=O)N[C@H]2C(=O)N[C@H]3C(=O)N[C@H](C(=O)N[C@H](C(=O)NCCCNS(=O)(=O)c4ccc(O)c(O)c4)c4cc(O)cc(O)c4-c4cc3ccc4O)[C@H](O)c3ccc(c(Cl)c3)Oc3cc2cc(c3O[C@@H]2O[C@H](CO)C(O)C(O)[C@H]2O[C@H]2CC(C)(N)[C@H](O)[C@H](C)O2)Oc2ccc(cc2Cl)[C@H]1O (stereo partly drawn) [Compound 16],> 64,64,> 64,4,32,> 64,> 64,4
CNC(CC(C)C)C(=O)NC1C(=O)NC(CC(N)=O)C(=O)NC2C(=O)NC3C(=O)NC(C(=O)N[C@H](C(=O)NCCCNC(=O)c4cc(=O)c(O)c[nH]4)c4cc(O)cc(O)c4-c4cc3ccc4O)C(O)c3ccc(c(Cl)c3)Oc3cc2cc(c3OC2OC(CO)C(O)C(O)C2OC2CC(C)(N)C(O)C(C)O2)Oc2ccc(cc2Cl)C1O (stereo in doubt) [Compound 20],64,64,> 64,32,32,> 64,64,32
CNC(CC(C)C)C(=O)N[C@H]1C(=O)N[C@@H](CC(N)=O)C(=O)N[C@H]2C(=O)N[C@H]3C(=O)N[C@H](C(=O)N[C@@H](C(=O)NCc4cn(CCNC(=O)c5cccc(O)c5O)nn4)c4cc(O)cc(O)c4-c4cc3ccc4O)[C@H](O)c3ccc(c(Cl)c3)Oc3cc2cc(c3OC2O[C@H](CO)C(O)C(O)[C@H]2O[C@H]2CC(C)(N)[C@H](O)C(C)O2)Oc2ccc(cc2Cl)[C@H]1O (stereo in doubt) [Compound 14],> 64,> 64,> 64,4,> 64,> 64,> 64,16
CC(C)C[C@H](C(=O)N[C@H]1C(=O)N[C@@H](CC(N)=O)C(=O)N[C@H]2C(=O)N[C@H]3C(=O)N[C@H](C(=O)N[C@H](C(=O)O)c4cc(O)cc(O)c4-c4cc3ccc4O)[C@H](O)c3ccc(c(Cl)c3)Oc3cc2cc(c3O[C@@H]2O[C@H](CO)C(O)C(O)[C@H]2O[C@H]2CC(C)(N)[C@H](O)[C@H](C)O2)Oc2ccc(cc2Cl)[C@H]1O)N(C)CCNC(=O)c1ccc(O)c(O)c1Cl (stereo partly drawn) [Compound 30],> 64,> 64,> 64,4,64,> 64,> 64,32
